Source: ChEMBL document CHEMBL1158366, “Gallium(III) complexes of 2-pyridineformamide thiosemicarbazones: cytotoxic activity against malignant glioblastoma” (Eur J Med Chem, 2009)
Calls of active or inactive are those of the source. The rule behind the calls is not given here.

What was measured:
[1] = Cytotoxicity against rat RT2 cells expressing wild type p53 protein after 48 hrs by MTT assay; assay type: functional, cell-based; details: RT2, 48 h
[2] = Cytotoxicity against human T98 cells expressing mutant p53 protein after 48 hrs by MTT assay; assay type: functional, cell-based; details: T98, 48 h
[3] = Toxicity in human RBC membrane assessed as hemolysis after 1 hr by spectrophotometry; assay type: cell-based, Erythrocyte; details: red blood cells (RBC membrane)
[4] = test system: RT2; experiment: Induction of apoptosis in rat RT2 cells expressing wild type p53 protein assessed as cell membrane morphological changes at 100 uM after 48 hrs by phase contrast microscopy; assay type: functional, cell-based
[5] = test system: T98; experiment: Induction of apoptosis in human T98 cells expressing mutant p53 protein assessed as cell membrane morphological changes at 100 uM after 48 hrs by phase contrast microscopy; assay type: functional, cell-based
[6] = test system: RT2; experiment: Induction of apoptosis in rat RT2 cells expressing wild type p53 protein assessed as DNA fragmentation at 100 uM after 48 hrs using DAPI staining by UV/fluorescence microscopy; assay type: functional, cell-based
[7] = test system: T98; experiment: Induction of apoptosis in human T98 cells expressing mutant p53 protein assessed as DNA fragmentation at 100 uM after 48 hrs using DAPI staining by UV/fluorescence microscopy; assay type: functional, cell-based

| Compound | IC50 [1] | IC50 [2] | IC50 at 1 hr [3] | Activity [4] | Activity [5] | Activity [6] | Activity [7] |
| --- | --- | --- | --- | --- | --- | --- | --- |
| NC(=S)N/N=C(\N)c1ccccn1 | 7.28 µM | 3.6 µM | > 1 mM | – | – | – | – |
| CCNC(=S)N/N=C(\N)c1ccccn1 | 359 µM | 143 µM | > 1 mM | – | – | – | – |
| CNC(=S)N/N=C(\N)c1ccccn1 | 12.2 µM | 32 µM | > 1 mM | Active | Active | Active | Active |
